Measured values published in patent US9861601B2 (The Board of Trustees of the Leland Stanford Junior …, priority 2012, dated 2018).
“Also recorded” adds a separate entry of the source. One block for each molecule: values may come before it.

Assays:
Recombinant human LTA4H = biological target: T1, Recombinant human LTA4H (Homo sapiens, UniProt P09960); experiment: In vitro epoxide hydrolase activity assay (LTB4 EIA readout); format: biochemical; conditions: LTA4 substrate 0.13 μM
T1 sequence (P09960 1-611): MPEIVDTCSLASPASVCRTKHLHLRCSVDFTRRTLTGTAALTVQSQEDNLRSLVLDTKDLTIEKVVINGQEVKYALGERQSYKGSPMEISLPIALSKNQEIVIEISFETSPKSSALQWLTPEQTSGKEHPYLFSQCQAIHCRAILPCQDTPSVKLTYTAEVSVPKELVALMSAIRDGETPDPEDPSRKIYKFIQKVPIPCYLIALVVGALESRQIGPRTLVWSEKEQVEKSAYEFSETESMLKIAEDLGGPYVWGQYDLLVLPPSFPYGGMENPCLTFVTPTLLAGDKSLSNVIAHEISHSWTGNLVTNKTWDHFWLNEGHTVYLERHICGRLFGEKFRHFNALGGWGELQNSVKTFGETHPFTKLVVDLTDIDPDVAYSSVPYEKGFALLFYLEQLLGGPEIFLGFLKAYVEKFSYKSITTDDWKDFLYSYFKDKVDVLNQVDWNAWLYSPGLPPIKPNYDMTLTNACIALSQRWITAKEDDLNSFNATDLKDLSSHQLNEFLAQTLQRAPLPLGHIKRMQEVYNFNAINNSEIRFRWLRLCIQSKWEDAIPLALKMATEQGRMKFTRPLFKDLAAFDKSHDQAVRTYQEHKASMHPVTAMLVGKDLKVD
Protocol: The LTA4H inhibitory activity of certain compounds in this invention was measured using an in vitro epoxide hydrolase activity assay. In this assay, an LTA4 substrate was first prepared from the methyl ester of LTA4 (Cayman Chemical), which was treated under nitrogen with […] of NaOH, at room temperature, for 40 min. The LTA4 substrate in its free acid form was kept frozen at −80° C. until use. Recombinant human LTA4H (36 ng) was incubated with various concentrations of test compounds for 10 min. at room temperature in assay buffer (0.1 M potassium phosphate, pH 7.4, 5 mg/ml fatty acid-free bovine serum albumin) in a volume of 200 μl. Then, the mixture was incubated with 25 μl of LTA4 substrate (final concentration, 40 ng/ml, 0.13 μM; final volume, 225 μl) for 30 min. at room temperature. The assay was terminated by diluting 20-fold with assay buffer. LTB4 production from each reaction was then assayed using the LTB4 EIA kit (catalog no. 520111, Cayman Chemical). The concentration of compound required for half-maximal inhibition of recombinant enzyme activity (IC50) was calculated by nonlinear regression using GraphPad Prism 4.0 (GraphPad Software Inc), one-site binding competition.

athymic rat model of PAH = experiment: SU5416 athymic nude rat model of PAH (PH); format: in vivo; conditions: for reversal of established PH / PH-related death: treatment started 21 days (3 wk) after SU5416, doses as in b355, assessed at wk 5
Protocol: In the model, PH was first initiated by a single injection of a VEGFR2 inhibitor, SU5416, and monitored by weekly echocardiography. Survival of the animals was recorded on daily basis. […] After 5 weeks (day 35), animals were sacrificed after right heart catheterization. […] Oral availability of ubenimex was determined by pharmacokinetic analysis.
The athymic nude rat model is an accepted model of severe PAH associated with immune dysregulation. Athymic nude rats (rnu/rnu) (Charles River Laboratories) were used for these studies. Six to eight week old animals were injected subcutaneously (s.c.) with a single dose of either SU5416 (SU) (10 mg/kg) dissolved in DMSO or DMSO (vehicle) alone. All animals were maintained in normoxic conditions. PH progression was monitored by weekly echocardiography (ECHO). Survival of rats was monitored out to wk 5 when they underwent a terminal right heart catheterization. PH was confirmed by ECHO. Hemodynamic measurements included right ventricular systolic pressure (RVSP) determined by right heart catheterization and right ventricular hypertrophy (RVH) determined by the weight ratio of RV/(LV+S) (right ventricle/(left ventricle+septum)).
All animals were sacrificed 5 wk after SU administration for hemodynamic measurements. […] Serial improvement was observed from the time of treatment initiation. Interval improvement was manifested by decreasing RV wall thickness and increasing pulmonary artery acceleration times (PAAT) after initiation of treatment. […] Here again, the compound of Formula III was notable: treatment with that compound yielded an RVH ratio of 0.29. RVH for healthy rats is generally about 0.25.

[1] = tested on: Rat pulmonary arterial endothelial cells (PAECs); experiment: PAEC apoptosis assay (Annexin V flow cytometry, with or without macrophage co-culture); format: cell-based; conditions: for PAEC apoptosis induced by exogenous leukotriene (no macrophages): 24 hrs
Protocol: The transwell assay involved co-culturing IMØs from several sources with PAECs. IMØs, from (A) DMSO and (B) SU rat lungs, were isolated and co-cultured with PAECs. After 24 hr, PAEC apoptosis was analyzed by flow cytometry for Annexin V expression. To isolate the specific impact of LTB4 generated by 5-LO activation further, IMØs were extracted from healthy rats and transfected with S271E to produce a phosphorylation mimic mutant or with S271A to produce a dephosphorylation mimic mutant. Vector and WT 5-LO DNA-transfected IMØs were used as controls. Flow cytometry was performed on PAECs co-cultured with IMØs extracted from healthy rats and transfected with (C) vector as control, (D) WT 5-LO, (E) S271A, (F) S271E (G) S271E mutant treated with n-acetyl cysteine (NAC) (200 nM) or (H) S271A mutant treated with LTB4 (100 nM). PAECs were treated with (I) exogenous LTB4 (200 nM) or (J) LTB4 (200 nM) with a BLT1 inhibitor U75302 […] (n=3 experiments per group). Representative flow cytometry plots are shown, n=3 experiments per group.
The results reported in this example were obtained using the following PAEC apoptosis assay. Rat pulmonary arterial endothelial cells (PAECs) were co-cultured with macrophages (+/− transfection) for 24 hr. They were then washed once with PBS and once with binding buffer from the Annexin V Apoptosis Detection Kit (88-8007; eBioscience). Cells were then suspended in binding buffer at 1-5×10^6/ml. 5 μl of APC conjugated Annexin V was added to 100 μl of cells, which were then incubated at room temperature for 15 min. Five μl of propidium iodide staining solution were added 5 min. prior to flow cytometry analysis on an LSRFortessa cell analyzer (BD Biosciences).

[2] = tested on: human primary pulmonary arterial smooth muscle cell (hPASMC); experiment: hPASMC proliferation (MTT) and hypertrophy (protein/DNA ratio) assay; format: cell-based; conditions: 24 hr
Protocol: An in vitro toxicology assay kit (#M-5655, #8910, Sigma) was used to measure the number of viable hPASMC after LTB4 treatment. Briefly, hPASMCs were plated in a 96 well plate one day before treatment. Cells were treated with 200 nM or 400 nM LTB4 for 24 hr. On the day of assay, growing medium was first removed from the cells, then 20 μL of 12 mM MTT ((3-(4,5-Dimethylthiazol-2-yl)-2,5-diphenyltetrazolium bromide, a yellow tetrazole)) stock solution were then added to each well. After incubation at 37 degrees C. for 4 hr, 200 μL MTT dissolution solution (10% Triton X-100 plus 0.1 N HCl in anhydrous isopropanol) were added to each well. Relative optical density, which was used as a parameter for proliferation, was calculated by subtracting the absorbance at 690 nm from that at 570 nm. Cellular hypertrophy was determined by protein/DNA ratio. hPASMCs were seeded on 6 well plates. Cells were treated with 200 nM or 400 nM LTB4 for 24 hr. hPASMCs were then collected and divided into to two. For one part of each sample, a BCA protein assay kit (#23227, Thermo Scientific) was used to determined the total protein amount. DNA was purified from the other part of the sample using a Miniprep kit (QIAGEN). DNA concentration was then measured by nanodrop.

[3] = patients with PAH; cited from earlier work

Structure (SMILES): CC(=O)N[C@H](Cc1ccc(O)cc1)[C@H](OC(C)=O)C(=O)N[C@@H](CC(C)C)C(=O)O
IC50 (Recombinant human LTA4H): 43 ± 11 nM

Structure (SMILES): CC(=O)N[C@H](Cc1ccc(O)cc1)[C@H](O)C(=O)N[C@@H](CC(C)C)C(=O)O
IC50 (Recombinant human LTA4H): 13 ± 4 nM

IC50 (Recombinant human LTA4H): 10 ± 5 nM
Structure (SMILES): CC(C)C[C@H](NC(=O)[C@@H](O)[C@H](N)Cc1ccc(Oc2nc3ccccc3s2)cc1)C(=O)O [Formula III, (S)-2-((2S,3R)-3-amino-4-(4-(benzo[d]thiazol-2-yloxy)phenyl)-2-hydroxybutanamido)-4-methylpentanoic acid]
RVSP (athymic rat model of PAH; 1 mg/kg p.o. daily, sacrificed 5 wk after SU): 28 mm Hg
RVH ratio (athymic rat model of PAH; 1 mg/kg p.o. daily, sacrificed 5 wk after SU, RV/(LV+S)): 0.29

Structure (SMILES): O=C(O)C1CCN(Cc2ccc(Oc3nc4ccccc4s3)cc2)CC1 [JNJ26993135, 1-[4-(benzothiazol-2-yloxy)-benzyl]-piperidine-4-carboxylic acid]
accumulation of 5-LO expressing periarteriolar macrophages and B cells in lungs (athymic rat model of PAH; SU-treated athymic rats): significantly reduced
in vivo PAEC apoptosis (athymic rat model of PAH; SU-treated athymic rats): reduced
reversal of established PH / PH-related death (athymic rat model of PAH): efficacious in reversing severe PH and preventing PH-related death; also recorded: reverses established PH

Structure (SMILES): CCCCC/C=C\C[C@@H](O)/C=C/C=C/C=C\[C@@H](O)CCCC(=O)O [LTB4, leukotriene B4]
PAEC apoptosis induced by exogenous leukotriene (no macrophages) [1]: significant apoptosis
PAEC apoptosis in co-culture with S271A transfected macrophages ([1]; exogenous LTB4 (100 nM)): caused apoptosis
cellular hypertrophy (protein/DNA ratio) ([2]; 200 nM or 400 nM): increased in a similar pattern
number of PASMC versus negative control group ([2]; 200 nM): 1.8 fold
number of PASMC versus negative control group ([2]; 400 nM): two fold more

Structure (SMILES): CCCCC/C=C\C\C=C/C=C/C=C/[C@@H](SC[C@H](NC(=O)CC[C@H](N)C(=O)O)C(=O)NCC(=O)O)[C@@H](O)CCCC(=O)O [LTC4, leukotriene C4]
PAEC apoptosis induced by exogenous leukotriene (no macrophages) [1]: did not induce PAEC apoptosis

Structure (SMILES): CCCCC/C=C\C\C=C/C=C/C=C/[C@@H](SC[C@H](N)C(=O)NCC(=O)O)[C@@H](O)CCCC(=O)O [LTD4, leukotriene D4]
PAEC apoptosis induced by exogenous leukotriene (no macrophages) [1]: did not induce PAEC apoptosis

Structure (SMILES): CCCCC/C=C\C\C=C/C=C/C=C/[C@@H](SC[C@H](N)C(=O)O)[C@@H](O)CCCC(=O)O [LTE4, leukotriene E4]
PAEC apoptosis induced by exogenous leukotriene (no macrophages) [1]: did not induce PAEC apoptosis

Structure (SMILES): CCCCCCCCCCCCC/C=C/[C@@H](O)[C@@H](N)COP(=O)(O)O [SIP, sphingosine-1-phosphate]
rescue of PAECs co-cultured with S271E cells ([1]; exogenously added): able to rescue

Structure (SMILES): CN1CC(=O)N2[C@H](c3ccc4c(c3)OCO4)c3[nH]c4ccccc4c3C[C@@H]2C1=O [Tadalafil]
half-life [3]: 35 h

Structure (SMILES): CCCCC/C=C\C[C@@H](O)/C=C/c1cccc(C[C@@H](O)CCCCO)n1 [U75302]
LTB4-mediated PAEC apoptosis ([1]; LTB4 (200 nM) with U75302, 24 hr): prevented LTB4-mediated apoptosis

Structure (SMILES): CC(=O)Oc1ccccc1C(=O)O [aspirin]
reversal of established PH / PH-related death (athymic rat model of PAH): relatively less therapeutic

Structure (SMILES): COC(=O)[C@H](CC(C)C)NC(=O)[C@@H](OC(C)=O)[C@@H](Cc1ccc(Br)cc1)NC(C)=O [di-acyl ubenimex bromide, (S)-methyl 2-((2S,3R)-3-acetamido-2-acetoxy-4-(4-bromophenyl)butanamido)-4-methylpentanoate]
IC50 (Recombinant human LTA4H): 40 ± 22 nM

Structure (SMILES): COC(=O)[C@H](CC(C)C)NC(=O)[C@@H](OC(C)=O)[C@@H](Cc1ccccc1)NC(C)=O [di-acyl ubenimex, (S)-methyl 2-((2S,3R)-3-acetamido-2-acetoxy-4-phenylbutanamido)-4-methylpentanoate]
IC50 (Recombinant human LTA4H): 25 ± 18 nM

Structure (SMILES): O=C(NC1CCCCC1)NC1CCCCC1 [dicyclohexyl urea]
reversal of established PH / PH-related death (athymic rat model of PAH): relatively less therapeutic

IC50 (Recombinant human LTA4H): 94 ± 21 nM
Structure (SMILES): COC(=O)[C@H](CC(C)C)NC(=O)[C@@H](O)[C@@H](Cc1ccccc1)NC(C)=O [mono-acryl ubenimex, (S)-methyl 2-((2S,3R)-3-acetamido-2-hydroxy-4-phenylbutanamido)-4-methylpentanoate]

IC50 (Recombinant human LTA4H): 93 ± 16 nM
Structure (SMILES): COC(=O)[C@H](CC(C)C)NC(=O)[C@@H](O)[C@@H](Cc1ccc(Br)cc1)NC(C)=O [mono-acyl ubenimex bromide, (S)-methyl 2-((2S,3R)-3-acetamido-4-(4-bromophenyl)-2-hydroxybutanamido)-4-methylpentanoate]

Structure (SMILES): CC(=O)N[C@@H](CS)C(=O)O [n-acetyl cysteine]
PAEC apoptosis in co-culture with S271E mutant macrophages ([1]; NAC (200 nM)): no diminution of apoptosis

Structure (SMILES): Oc1ccc(C=Cc2cc(O)cc(O)c2)cc1 [resveratrol]
reversal of established PH / PH-related death (athymic rat model of PAH): did not attenuate PH or improve survival

IC50 (Recombinant human LTA4H): 54 ± 13 nM
Structure (SMILES): COC(=O)[C@H](CC(C)C)NC(=O)[C@@H](O)[C@H](N)Cc1ccccc1 [ubenimex methy ester, (S)-methyl 2-((2S,3R)-3-amino-2-hydroxy-4-phenylbutanamido)-4-methylpentanoate]

Structure (SMILES): CC(c1cc2ccccc2s1)N(O)C(N)=O (centres unmarked) [zileuton, 1-[1-(1-benzothiophen-2-yl)ethyl]-1-hydroxyurea]
reversal of established PH / PH-related death (athymic rat model of PAH): mildly attenuated pressures and prevented death
